# Reference: ChEMBL document CHEMBL3431459, “Roche carnitine palmitoyltransferase modulator screening data (supplementary data associated with the publication CHEMBL2216752)”
# Columns and labels:
# [1] = target: T1, Carnitine O-palmitoyltransferase 1, muscle isoform (Homo sapiens, UniProt Q92523); test: SUPPLEMENTARY: Inhibition of Carnitine palmitoyltransferase 1, muscle isoform; parameters: species or system Muscle tissue
# T1 sequence (Q92523 whole entry): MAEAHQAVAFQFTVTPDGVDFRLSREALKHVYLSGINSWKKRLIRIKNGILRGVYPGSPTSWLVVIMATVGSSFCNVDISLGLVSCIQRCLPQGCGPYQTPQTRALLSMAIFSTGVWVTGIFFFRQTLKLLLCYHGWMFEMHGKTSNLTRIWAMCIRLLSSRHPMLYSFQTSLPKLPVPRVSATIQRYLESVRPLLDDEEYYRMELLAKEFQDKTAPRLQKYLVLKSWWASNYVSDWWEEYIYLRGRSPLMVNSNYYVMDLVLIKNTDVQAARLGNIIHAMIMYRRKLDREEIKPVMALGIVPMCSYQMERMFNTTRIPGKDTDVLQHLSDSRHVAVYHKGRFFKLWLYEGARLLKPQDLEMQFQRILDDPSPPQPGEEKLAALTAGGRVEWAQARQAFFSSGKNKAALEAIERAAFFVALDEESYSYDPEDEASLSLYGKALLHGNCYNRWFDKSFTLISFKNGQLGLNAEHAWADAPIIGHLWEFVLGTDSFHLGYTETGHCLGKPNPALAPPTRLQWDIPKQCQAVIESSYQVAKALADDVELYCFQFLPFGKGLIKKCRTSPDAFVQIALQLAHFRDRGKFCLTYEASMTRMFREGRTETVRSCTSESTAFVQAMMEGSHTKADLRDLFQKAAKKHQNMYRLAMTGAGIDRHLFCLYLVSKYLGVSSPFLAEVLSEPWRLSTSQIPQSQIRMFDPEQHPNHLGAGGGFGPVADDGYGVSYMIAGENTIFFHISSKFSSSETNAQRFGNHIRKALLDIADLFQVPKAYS
# [2] = SUPPLEMENTARY: Lipophilicity (log D) Determination by high-throughput shake-flask; type: physicochemical; conditions: octanol/water
# [3] = target: T2, Carnitine O-palmitoyltransferase 2, mitochondrial (Rattus norvegicus, UniProt P18886); test: (§1) SUPPLEMENTARY: Inhibition of Carnitine palmitoyltransferase 2
# T2 sequence (P18886 whole entry): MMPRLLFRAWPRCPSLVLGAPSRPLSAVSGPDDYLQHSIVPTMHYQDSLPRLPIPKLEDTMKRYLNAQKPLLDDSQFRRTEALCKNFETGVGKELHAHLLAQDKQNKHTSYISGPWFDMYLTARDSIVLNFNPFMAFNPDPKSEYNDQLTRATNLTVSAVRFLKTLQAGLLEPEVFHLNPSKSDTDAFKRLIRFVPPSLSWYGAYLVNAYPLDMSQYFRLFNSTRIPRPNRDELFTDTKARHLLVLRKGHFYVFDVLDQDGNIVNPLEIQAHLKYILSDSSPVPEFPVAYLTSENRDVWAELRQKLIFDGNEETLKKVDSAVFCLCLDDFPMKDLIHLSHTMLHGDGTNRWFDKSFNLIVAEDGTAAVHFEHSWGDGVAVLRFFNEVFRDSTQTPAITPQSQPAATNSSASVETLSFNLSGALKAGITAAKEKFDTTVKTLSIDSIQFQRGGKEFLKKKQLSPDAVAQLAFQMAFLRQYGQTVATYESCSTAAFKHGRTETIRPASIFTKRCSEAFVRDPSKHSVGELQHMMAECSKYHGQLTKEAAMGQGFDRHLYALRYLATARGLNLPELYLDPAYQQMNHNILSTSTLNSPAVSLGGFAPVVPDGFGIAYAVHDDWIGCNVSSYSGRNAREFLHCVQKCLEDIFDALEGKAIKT
# [4] = target: T3, Carnitine O-palmitoyltransferase 2, mitochondrial (Homo sapiens, UniProt P23786); test: as §1
# T3 sequence (P23786 whole entry): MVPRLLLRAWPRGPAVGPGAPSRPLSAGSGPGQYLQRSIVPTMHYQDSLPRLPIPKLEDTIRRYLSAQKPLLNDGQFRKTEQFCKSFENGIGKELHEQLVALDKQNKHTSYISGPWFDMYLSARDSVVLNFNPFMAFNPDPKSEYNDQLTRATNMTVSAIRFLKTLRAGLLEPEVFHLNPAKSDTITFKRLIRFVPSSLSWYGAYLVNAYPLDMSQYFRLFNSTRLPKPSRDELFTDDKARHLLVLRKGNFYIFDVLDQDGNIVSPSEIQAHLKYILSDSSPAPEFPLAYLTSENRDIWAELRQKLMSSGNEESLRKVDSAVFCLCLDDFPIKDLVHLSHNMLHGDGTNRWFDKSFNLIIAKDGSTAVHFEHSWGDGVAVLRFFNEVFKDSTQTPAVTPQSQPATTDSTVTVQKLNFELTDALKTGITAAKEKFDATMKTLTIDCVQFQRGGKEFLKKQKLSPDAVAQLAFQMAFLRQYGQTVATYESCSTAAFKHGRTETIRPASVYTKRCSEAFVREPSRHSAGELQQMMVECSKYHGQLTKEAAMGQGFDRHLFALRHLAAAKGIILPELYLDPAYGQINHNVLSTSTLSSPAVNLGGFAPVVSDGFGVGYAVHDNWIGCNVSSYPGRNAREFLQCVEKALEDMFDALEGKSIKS
# [5] = target: T4, Carnitine O-palmitoyltransferase 1, liver isoform (Rattus norvegicus, UniProt P32198); test: (§2) SUPPLEMENTARY: Inhibition of Carnitine palmitoyltransferase 1, liver isoform
# T4 sequence (P32198 whole entry): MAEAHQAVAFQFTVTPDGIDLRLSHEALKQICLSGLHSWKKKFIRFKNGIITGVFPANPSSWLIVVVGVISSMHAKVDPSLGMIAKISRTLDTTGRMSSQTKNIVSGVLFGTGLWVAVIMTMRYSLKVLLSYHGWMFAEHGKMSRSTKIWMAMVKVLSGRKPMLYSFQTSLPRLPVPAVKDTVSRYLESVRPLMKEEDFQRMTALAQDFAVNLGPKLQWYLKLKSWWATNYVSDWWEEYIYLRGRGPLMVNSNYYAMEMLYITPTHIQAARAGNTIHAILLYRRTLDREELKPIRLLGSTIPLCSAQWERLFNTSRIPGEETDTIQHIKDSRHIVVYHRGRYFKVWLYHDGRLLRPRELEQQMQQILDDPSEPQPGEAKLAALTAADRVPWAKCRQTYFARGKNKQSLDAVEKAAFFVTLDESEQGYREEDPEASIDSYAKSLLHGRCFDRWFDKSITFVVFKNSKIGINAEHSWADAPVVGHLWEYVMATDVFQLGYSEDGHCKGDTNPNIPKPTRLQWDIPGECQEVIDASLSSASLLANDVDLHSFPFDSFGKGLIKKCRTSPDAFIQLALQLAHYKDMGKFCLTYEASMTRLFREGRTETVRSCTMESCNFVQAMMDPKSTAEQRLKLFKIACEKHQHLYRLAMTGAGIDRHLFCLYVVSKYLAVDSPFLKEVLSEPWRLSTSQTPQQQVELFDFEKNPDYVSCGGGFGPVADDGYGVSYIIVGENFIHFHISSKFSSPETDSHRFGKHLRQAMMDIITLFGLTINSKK
# [6] = target: T5, Carnitine O-palmitoyltransferase 1, liver isoform (Homo sapiens, UniProt P50416); test: as §2
# T5 sequence (P50416 whole entry): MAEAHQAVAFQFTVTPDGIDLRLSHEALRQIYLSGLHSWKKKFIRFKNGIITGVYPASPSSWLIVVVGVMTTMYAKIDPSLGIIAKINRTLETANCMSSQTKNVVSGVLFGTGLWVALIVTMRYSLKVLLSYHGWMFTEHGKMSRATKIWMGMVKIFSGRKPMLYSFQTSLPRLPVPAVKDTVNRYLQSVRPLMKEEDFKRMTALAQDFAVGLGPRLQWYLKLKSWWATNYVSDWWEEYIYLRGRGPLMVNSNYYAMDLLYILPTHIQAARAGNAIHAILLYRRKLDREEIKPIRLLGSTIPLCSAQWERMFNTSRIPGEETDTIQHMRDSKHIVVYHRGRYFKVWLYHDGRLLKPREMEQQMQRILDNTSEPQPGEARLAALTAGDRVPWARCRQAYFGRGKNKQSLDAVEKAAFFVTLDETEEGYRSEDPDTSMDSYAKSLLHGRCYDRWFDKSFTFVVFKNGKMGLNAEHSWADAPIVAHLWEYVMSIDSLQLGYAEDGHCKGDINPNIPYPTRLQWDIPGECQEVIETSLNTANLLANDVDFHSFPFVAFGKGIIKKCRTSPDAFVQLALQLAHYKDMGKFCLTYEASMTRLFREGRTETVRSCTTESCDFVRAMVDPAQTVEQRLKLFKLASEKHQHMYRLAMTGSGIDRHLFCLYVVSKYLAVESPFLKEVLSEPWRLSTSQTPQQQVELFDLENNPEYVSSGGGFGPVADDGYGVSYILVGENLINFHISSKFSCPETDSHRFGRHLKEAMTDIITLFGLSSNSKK
# [7] = SUPPLEMENTARY: Lyophilisation Solubility Assay (LYSA); type: physicochemical; conditions: read-out: Kinetic_solubility
# [8] = SUPPLEMENTARY: PAMPA permeability assay; type: physicochemical; conditions: read-out: Permeability
IC50 [1],logD [2],IC50 [3],IC50 [4],IC50 [5],IC50 [6],solubility kinetic [7],Papp [8],Compound
1740 nM,-0.27,37400 nM,4450 nM,61.3 nM,102 nM,13 µg/mL,0.21 ×10⁻⁶ cm/s,COc1ccc(Cl)cc1S(=O)(=O)N1CCS(=O)(=O)c2ccc(C(=O)Nc3ccc(C(=O)O)c(F)c3)cc21
> 100000 nM,3.62,> 100000 nM,> 100000 nM,10.1 nM,45 nM,< 1 µg/mL,0.06 ×10⁻⁶ cm/s,COc1ccc(Cl)cc1S(=O)(=O)c1cn(CCCO)c2ccc(C(=O)Nc3ccccc3)cc12
> 100000 nM,3.14,78300 nM,49700 nM,475 nM,108 nM,50 µg/mL,2.71 ×10⁻⁶ cm/s,CC(=O)Nc1ccc(-n2nnc([C@H]3CCCCN3C(=O)COc3ccccc3)n2)cc1
> 100000 nM,3.3,13200 nM,19500 nM,1040 nM,40.2 nM,31 µg/mL,1.49 ×10⁻⁶ cm/s,CCN(CC)C(=O)c1ccc(-c2noc([C@H]3CCCCN3C(=O)COc3ccccc3)n2)cc1
> 100000 nM,2.96,> 100000 nM,29300 nM,565 nM,108 nM,101 µg/mL,2.69 ×10⁻⁶ cm/s,O=C(COc1ccccc1)N1CCCC[C@@H]1c1nc(-c2cccs2)n[nH]1
> 100000 nM,1.95,> 100000 nM,> 100000 nM,1330 nM,123 nM,281 µg/mL,2.77 ×10⁻⁶ cm/s,Nc1cc(-c2n[nH]c([C@H]3CCCCN3C(=O)COc3ccccc3)n2)ccn1
30300 nM,0.73,> 100000 nM,53000 nM,118 nM,92.3 nM,402 µg/mL,6.19 ×10⁻⁶ cm/s,Cc1sc([C@H]2CCCCN2C(=O)COc2ccccc2)nc1-c1cccc(C(=O)O)c1
27300 nM,-0.45,> 100000 nM,> 100000 nM,25.9 nM,34.5 nM,446 µg/mL,0.03 ×10⁻⁶ cm/s,COc1ccc(Cl)cc1S(=O)(=O)N1CC(C(=O)O)Oc2ccc(C(=O)Nc3ccccc3)cc21 (stereo not given)
> 100000 nM,2.47,> 100000 nM,42700 nM,372 nM,110 nM,61 µg/mL,4.86 ×10⁻⁶ cm/s,Nc1cc(-c2nc([C@H]3CCCCN3C(=O)COc3ccccc3)no2)ccn1
17200 nM,-0.34,55600 nM,2530 nM,36.8 nM,94.1 nM,34 µg/mL,0.12 ×10⁻⁶ cm/s,COc1ccc(Cl)cc1S(=O)(=O)N1CC[S+]([O-])c2ccc(C(=O)Nc3ccc(C(=O)O)cc3)cc21 (stereo not given)
